# Measurements from patent US9493396B2, “Substituted naphthalene compounds as calcium sensing receptor modulators” (LUPIN ATLANTIS HOLDINGS SA, priority 2013, dated 2016).
# Where a name gives a salt, the structure may show the parent alone.
# Biological target: T1, Calcium sensing receptor (hCaSR) (Homo sapiens, UniProt P41180)
# T1 construct: expressed in transfected cells; host or cells: HEK293 (stably transfected)
# T1 sequence (P41180 20-1078): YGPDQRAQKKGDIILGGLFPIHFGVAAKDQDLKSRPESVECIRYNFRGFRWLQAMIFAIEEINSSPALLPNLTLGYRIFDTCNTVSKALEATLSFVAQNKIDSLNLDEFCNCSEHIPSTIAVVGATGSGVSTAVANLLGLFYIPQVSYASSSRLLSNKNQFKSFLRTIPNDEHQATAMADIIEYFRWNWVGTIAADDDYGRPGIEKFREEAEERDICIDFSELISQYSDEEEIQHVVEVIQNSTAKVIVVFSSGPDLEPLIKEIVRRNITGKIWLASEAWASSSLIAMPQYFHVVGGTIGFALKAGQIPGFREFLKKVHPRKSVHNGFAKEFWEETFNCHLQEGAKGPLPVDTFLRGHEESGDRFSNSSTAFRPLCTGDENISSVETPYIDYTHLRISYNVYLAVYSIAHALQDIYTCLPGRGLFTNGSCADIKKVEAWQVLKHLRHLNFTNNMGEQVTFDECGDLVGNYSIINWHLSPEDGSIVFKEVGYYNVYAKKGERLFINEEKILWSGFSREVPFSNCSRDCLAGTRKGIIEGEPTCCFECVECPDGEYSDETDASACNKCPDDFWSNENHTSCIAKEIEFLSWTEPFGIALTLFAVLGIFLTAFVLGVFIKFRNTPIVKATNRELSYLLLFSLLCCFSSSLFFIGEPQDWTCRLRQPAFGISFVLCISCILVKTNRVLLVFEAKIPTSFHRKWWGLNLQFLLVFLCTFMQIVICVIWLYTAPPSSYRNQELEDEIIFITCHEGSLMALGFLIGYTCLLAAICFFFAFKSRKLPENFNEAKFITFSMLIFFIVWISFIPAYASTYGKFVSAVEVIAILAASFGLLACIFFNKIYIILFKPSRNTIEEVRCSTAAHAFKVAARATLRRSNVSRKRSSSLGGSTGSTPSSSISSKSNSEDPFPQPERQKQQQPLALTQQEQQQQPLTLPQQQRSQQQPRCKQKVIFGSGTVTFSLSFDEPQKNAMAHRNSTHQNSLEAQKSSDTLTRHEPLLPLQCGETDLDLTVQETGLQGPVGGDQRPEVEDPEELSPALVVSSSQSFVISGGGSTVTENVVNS
# Test: In-vitro assay of calcimimetics through modulation of calcium sensing receptor (intracellular calcium increase, FLIPR)
# Type: cell-based
# Conditions: stably transfected HEK293 cells expressing hCaSR; Fluo4NW dye; 0.3 mM CaCl2; 8-point assay; read-out: EC50 in range
# Description: In-Vitro Assay Method of Calcimimetics Through Modulation of Calcium Sensing Receptor (CaSR): The ability of the compounds to modulate Calcium sensing receptor is determined by measuring an increase in intracellular calcium [Ca^2+]i. Stably transfected HEK293 cells expressing hCaSR_pTriEx-3 hygro vector are developed. Cells are grown overnight on a 96-well plate to 80% confluency in Ham's F12 containing 20% FBS at 37° C., 5% CO2. Subsequently, cells are washed extensively with 20 mM HEPES buffer containing 126 mM […], 1 mM MgCl2 and 4 mM KCl to remove serum components that might interfere with the assay. Cells are loaded with calcium sensing Fluo4NW dye in HEPES base buffer containing 0.1% BSA and 1 mg/ml glucose for 30 minutes to measure changes in intracellular calcium. The activities of the compounds are measured in FLIPR using 0.3 mM CaCl2 in 20 mM HEPES base buffer. The effectiveness of the compound to modulate receptor activity is determined by calculating the EC50 responses for that compound in an 8-point assay and plotted using GraphPad Prism 5.
row,Compound,EC50 [nM]
1,"CC(N[C@H](C)c1cccc(Cl)c1)c1cc(-c2ccc(OC(F)F)cc2)c2ccccc2c1 (stereo partly drawn) [Example 22, (1R)-1-(3-Chlorophenyl)-N-1-(4-(4-(difluoromethoxy)phenyl)naphthalen-2-yl)ethyl)ethanamine hydrochloride]",< 20
2,"CC(N[C@H](C)c1cccc(Cl)c1)c1cc(-c2ccc(F)cc2)c2ccccc2c1 (stereo partly drawn) [Example 16, (1R)-1-(3-Chlorophenyl)-N-(1-(4-(4-fluorophenyl)naphthalen-2-yl)ethyl)ethanamine hydrochloride]",< 20
3,"CC(N[C@H](C)c1cccc2ccccc12)c1cc(-c2ccc(C(F)(F)F)cc2)c2ccccc2c1 (single isomer, unassigned) [Example 9a, hydrochloride]",20 to 50
4,"COc1cccc([C@@H](C)NCc2cc(-c3ccc(C)c(C(=O)O)c3)c3ccccc3c2)c1 [Example 90, (R)-5-(3-(((1-(3-Methoxyphenyl)ethyl)amino)methyl)naphthalen-1-yl)-2-methylbenzoic acid hydrochloride]",< 20
5,"CC(N[C@H](C)c1cccc2ccccc12)c1cc(-c2ccc(C(F)(F)F)cc2)c2ccccc2c1 (single isomer, unassigned) [Example 9b, hydrochloride]",< 20
6,"CC(N[C@H](C)c1cccc(Cl)c1)c1cc(-c2ccc(C(F)(F)F)cc2)c2ccccc2c1 (stereo partly drawn) [Example 10, (1R)-1-(3-Chlorophenyl)-N-(1-(4-(4-(trifluoromethyl)phenyl)naphthalen-2-yl)ethyl)ethanamine hydrochloride]",< 20
7,"COc1cccc([C@@H](C)NCc2cc(-c3ccc(F)c(C(=O)O)c3)c3ccccc3c2)c1 [Example 97, (R)-2-Fluoro-5-(3-(((1-(3-methoxyphenyl)ethyl)amino)methyl)naphthalen-1-yl)benzoic acid hydrochloride]",< 20
8,"CCOc1cccc([C@@H](C)NCc2cc(-c3ccc(C)c(C(=O)O)c3)c3ccccc3c2)c1 [Example 91, hydrochloride]",< 20
9,"C[C@@H](NCc1cc(-c2cccc(C(F)(F)F)c2)c2ccccc2c1)c1cccc2ccccc12 [Example 3, (R)-1-(Naphthalen-1-yl)-N-((4-(3-(trifluoromethyl)phenyl)naphthalen-2-yl)methyl)ethanamine hydrochloride]",< 20
10,"COc1cccc([C@@H](C)NC(C)c2cc(-c3ccc(F)cc3)c3ccccc3c2)c1 (mixture of isomers) [Example 15, 1-(4-(4-Fluorophenyl)naphthalen-2-yl)-N-((R)-1-(3-methoxyphenyl)ethyl)ethanamine hydrochloride]",< 20
11,"COc1cccc([C@@H](C)NCc2cc(-c3ccc(C)c(C(=O)O)c3C)c3ccccc3c2)c1 [Example 109, (R)-3-(3-(((1-(3-Methoxyphenyl)ethyl)amino)methyl)naphthalen-1-yl)-2,6-dimethylbenzoic acid hydrochloride]",50 to 400
12,"COc1cc([C@@H](C)NCc2cc(-c3ccc(C)c(C(=O)O)c3)c3ccccc3c2)ccc1F [Example 93, (R)-5-(3-(((1-(4-Fluoro-3-methoxyphenyl)ethyl)amino)methyl)naphthalen-1-yl)-2-methylbenzoic acid hydrochloride]",50 to 400
13,"CCC(N[C@H](C)c1cccc(OC)c1)c1cc(-c2ccc(C(F)(F)F)cc2)c2ccccc2c1 (single isomer, unassigned) [Example 18a, hydrochloride]",< 20
14,"COc1cc([C@@H](C)NC(C)c2cc(-c3ccc(C(F)(F)F)cc3)c3ccccc3c2)ccc1F (mixture of isomers) [Example 11, (1R)-1-(4-Fluoro-3-methoxyphenyl)-N-(1-(4-(4-(trifluoromethyl)phenyl)naphthalen-2-yl)ethyl)ethanamine hydrochloride]",< 20
15,"Cc1ccc(-c2cc(CN[C@H](C)c3cccc4ccccc34)cc3ccccc23)cc1C(=O)O [Example 89, (R)-2-Methyl-5-(3-(((1-(naphthalen-1-yl)ethyl)amino)methyl)naphthalen-1-yl) benzoic acid]",20 to 50
16,"COc1cccc([C@@H](C)NCc2cc(-c3cccc(C(=O)O)c3F)c3ccccc3c2)c1 [Example 103, (R)-2-Fluoro-3-(3-(((1-(3-methoxyphenyl)ethyl)amino)methyl)naphthalen-1-yl)benzoic acid hydrochloride]",20 to 50
17,"COc1ccc(-c2cc(C(C)N[C@H](C)c3cccc(Cl)c3)cc3ccccc23)cc1F (stereo partly drawn) [Example 8, (1R)-1-(3-Chlorophenyl)-N-(1-(4-(3-fluoro-4-methoxyphenyl)naphthalen-2-yl)ethyl)ethanamine hydrochloride]",< 20

# The next lines start with the values.
row,EC50 [nM],Compound
1,< 20,"COc1cccc([C@@H](C)NC(C)c2cc(-c3cc(F)cc(C(=O)O)c3)c3ccccc3c2)c1 (stereo partly drawn) [Example 118, 3-Fluoro-5-(3-(1-(((R)-1-(3-methoxyphenyl)ethyl)amino)ethyl)naphthalen-1-yl)benzoic acid hydrochloride]"
2,50 to 400,"COCCOc1cccc([C@@H](C)NCc2cc(-c3ccc(F)c(C(=O)O)c3)c3ccccc3c2)c1 [Example 113, (R)-2-Fluoro-5-(3-(((1-(3-(2-methoxyethoxy)phenyl)ethyl)amino)methyl)naphthalen-1-yl) benzoic acid hydrochloride]"
3,50 to 400,"COc1cc(F)cc(C(C)NC(C)c2cc(-c3ccc(C(F)(F)F)cc3)c3ccccc3c2)c1 (single isomer, unassigned) [Example 163a, 1-(3-Fluoro-5-methoxyphenyl)-N-(1-(4-(4-(trifluoromethyl)phenyl)naphthalen-2-yl)ethyl)ethanamine hydrochloride]"
4,20 to 50,"CC(N[C@H](C)c1cccc(Cl)c1)c1cc(-c2ccc(F)c(CCC(=O)O)c2)c2ccccc2c1 (stereo partly drawn) [Example 144, 3-(5-(3-(1-(((R)-1-(3-Chlorophenyl)ethyl)amino)ethyl)naphthalen-1-yl)-2-fluorophenyl)propanoic acid hydrochloride]"
5,50 to 400,"CCC(N[C@H](C)c1cccc(OC)c1)c1cc(-c2ccc(F)c(CCC(=O)O)c2)c2ccccc2c1 (stereo partly drawn) [Example 140, 3-(2-Fluoro-5-(3-(1-(((R)-1-(3-methoxyphenyl)ethyl)amino)propyl)naphthalen-1-yl)phenyl)propanoic acid hydrochloride]"
6,20 to 50,"COc1cccc([C@@H](C)NC(C)c2cc(-c3cccc(C(=O)O)c3C)c3ccccc3c2)c1 (stereo partly drawn) [Example 116, 3-(3-(1-(((R)-1-(3-Methoxyphenyl)ethyl)amino)ethyl)naphthalen-1-yl)-2-methylbenzoic acid hydrochloride]"
7,50 to 400,"CCOc1cccc([C@@H](C)NC(C)c2cc(-c3ccc(C)c(CCC(=O)OC(C)C)c3)c3ccccc3c2)c1 (stereo partly drawn) [Example 154, Isopropyl 3-(5-(3-(1-(((R)-1-(3-ethoxyphenyl)ethyl)amino)ethyl)naphthalen-1-yl)-2-methylphenyl) propanoate hydrochloride]"
8,< 20,"COc1cccc([C@@H](C)NC(C)c2cc(-c3cccc(CCC(=O)O)c3F)c3ccccc3c2)c1 (stereo partly drawn) [Example 129, 3-(2-Fluoro-3-(3-(1-(((R)-1-(3-methoxyphenyl)ethyl)amino)ethyl)naphthalen-1-yl)phenyl)propanoic acid hydrochloride]"
9,20 to 50,"CCOc1cccc([C@@H](C)NC(C)c2cc(-c3ccc(C)c(C(=O)O)c3)c3ccccc3c2)c1 (stereo partly drawn) [Example 143, 5-(3-(1-(((R)-1-(3-Ethoxyphenyl)ethyl)amino)ethyl)naphthalen-1-yl)-2-methylbenzoic acid hydrochloride]"
10,50 to 400,"Cc1ccc(-c2cc(C(C)N[C@H](C)c3cccc(Cl)c3)cc3ccccc23)cc1C(=O)O (stereo partly drawn) [Example 117, 5-(3-(1-(((R)-1-(3-Chlorophenyl)ethyl)amino)ethyl)naphthalen-1-yl)-2-methylbenzoic acid hydrochloride]"
